# Measured values reported in patent US20030186967A1, “Acylresorcinol derivatives are selective vitronectin receptor inhibitors” (American Home Products Corporation, priority 1998, published 2003).
# Target: T1, Vitronectin receptor αVβ3 (Homo sapiens, UniProt P05106+P06756)
# T1 construct: expressed in transfected cells; host or cells: 512P5 cells (plasma membrane preparation)
# Assay: Vitronectin Receptor αVβ3 Binding Assay
# Conditions: read-out: VnR (IC50μM)
# T1 sequence (P06756 31-889 limits assumed): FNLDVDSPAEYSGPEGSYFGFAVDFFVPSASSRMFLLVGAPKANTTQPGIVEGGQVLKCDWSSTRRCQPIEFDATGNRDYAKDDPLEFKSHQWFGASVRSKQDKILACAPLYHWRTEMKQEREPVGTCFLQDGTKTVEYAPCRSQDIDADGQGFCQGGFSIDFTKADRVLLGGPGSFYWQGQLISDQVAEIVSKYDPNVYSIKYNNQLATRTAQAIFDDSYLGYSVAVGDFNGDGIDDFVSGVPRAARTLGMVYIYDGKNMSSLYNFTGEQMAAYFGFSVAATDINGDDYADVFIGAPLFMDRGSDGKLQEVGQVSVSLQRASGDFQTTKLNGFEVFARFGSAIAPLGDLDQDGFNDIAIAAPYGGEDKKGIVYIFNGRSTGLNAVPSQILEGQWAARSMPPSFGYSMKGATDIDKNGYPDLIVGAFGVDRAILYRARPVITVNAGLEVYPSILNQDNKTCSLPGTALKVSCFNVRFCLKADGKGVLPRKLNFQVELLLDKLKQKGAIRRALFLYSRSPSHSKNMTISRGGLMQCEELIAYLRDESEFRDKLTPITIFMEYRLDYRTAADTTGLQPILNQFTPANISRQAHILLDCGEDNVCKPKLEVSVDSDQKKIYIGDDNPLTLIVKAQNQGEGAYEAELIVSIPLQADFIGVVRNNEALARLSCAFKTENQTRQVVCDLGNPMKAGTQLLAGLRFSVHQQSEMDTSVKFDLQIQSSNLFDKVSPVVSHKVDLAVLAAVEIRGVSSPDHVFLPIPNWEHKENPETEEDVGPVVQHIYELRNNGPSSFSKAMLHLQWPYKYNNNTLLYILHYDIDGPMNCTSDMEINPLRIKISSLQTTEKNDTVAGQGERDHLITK
# T1 sequence (P06756 891-1048 partner limits assumed): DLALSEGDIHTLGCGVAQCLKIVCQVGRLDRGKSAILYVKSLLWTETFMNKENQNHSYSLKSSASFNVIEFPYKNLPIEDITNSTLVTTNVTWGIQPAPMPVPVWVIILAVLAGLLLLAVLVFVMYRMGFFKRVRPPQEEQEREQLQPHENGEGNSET
# T1 sequence (P05106 27-788): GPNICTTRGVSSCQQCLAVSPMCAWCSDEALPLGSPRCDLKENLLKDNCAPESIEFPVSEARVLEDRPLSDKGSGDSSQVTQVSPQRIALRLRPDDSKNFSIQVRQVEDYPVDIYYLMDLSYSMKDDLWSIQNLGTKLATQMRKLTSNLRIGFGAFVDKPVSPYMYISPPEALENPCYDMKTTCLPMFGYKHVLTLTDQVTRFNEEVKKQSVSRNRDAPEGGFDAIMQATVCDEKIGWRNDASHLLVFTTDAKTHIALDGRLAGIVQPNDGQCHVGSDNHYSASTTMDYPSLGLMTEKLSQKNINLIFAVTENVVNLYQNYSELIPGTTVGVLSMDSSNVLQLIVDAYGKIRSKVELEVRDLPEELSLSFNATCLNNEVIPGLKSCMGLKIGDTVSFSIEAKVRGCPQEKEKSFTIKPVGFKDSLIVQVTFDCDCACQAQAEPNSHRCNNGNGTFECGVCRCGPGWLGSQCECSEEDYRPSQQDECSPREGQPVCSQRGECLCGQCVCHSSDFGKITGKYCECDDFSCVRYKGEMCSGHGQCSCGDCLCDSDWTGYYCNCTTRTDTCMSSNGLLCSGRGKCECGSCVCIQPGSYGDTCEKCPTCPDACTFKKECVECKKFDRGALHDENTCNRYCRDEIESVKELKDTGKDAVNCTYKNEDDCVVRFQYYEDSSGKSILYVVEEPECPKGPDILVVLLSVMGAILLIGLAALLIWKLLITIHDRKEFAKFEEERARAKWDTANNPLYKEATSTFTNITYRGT
row,IC50 [µM],Structure (SMILES)
1,> 1,"CC(C)C(=O)N[C@@H](CNC(=O)c1ccc(OCCNC(=N)N)cc1O)C(=O)O [Example 190, (2S)-3-{[4-(2-{[amino(imino)methyl]amino}ethoxy)-2-hydroxybenzoyl]amino}-2-(isobutyrylamino)propanoic acid]"
2,> 1,"CCCC(=O)N[C@@H](CNC(=O)c1ccc(OCCNC(=N)N)cc1O)C(=O)O [Example 191, (2S)-3-{[4-(2-{[amino(imino)methyl]amino}ethoxy)-2-hydroxybenzoyl]amino}-2-(butyrylamino)propanoic acid]"
3,> 1,"CCCCCC(=O)N[C@@H](CNC(=O)c1ccc(OCCNC(=N)N)cc1O)C(=O)O [Example 192, (2S)-3-{[4-(2-{[amino(imino)methyl]amino}ethoxy)-2-hydroxybenzoyl]amino}-2-(hexanoylamino)propanoic acid]"
4,> 1,"CCCCC(=O)N[C@@H](CNC(=O)c1ccc(OCCNC(=N)N)cc1O)C(=O)O [Example 193, (2S)-3-{[4-(2-{[amino(imino)methyl]amino}ethoxy)-2-hydroxybenzoyl]amino}-2-(pentanoylamino)propanoic acid]"
5,> 1,CC(C)(C)CC(=O)N[C@@H](CNC(=O)c1ccc(OCCNC(=N)N)cc1O)C(=O)O [Example 194]
6,> 1,"CC1(C)C(C(=O)N[C@@H](CNC(=O)c2ccc(OCCNC(=N)N)cc2O)C(=O)O)C1(C)C [Example 195, (2S)-3-{[4-(2-{[amino(imino)methyl]amino}ethoxy)-2-hydroxybenzoyl]amino}-2-{[(2,2,3,3-tetramethylcyclopropyl)carbonyl]amino}propanoic acid]"
7,> 1,"C#CCCC(=O)N[C@@H](CNC(=O)c1ccc(OCCNC(=N)N)cc1O)C(=O)O [Example 197, (2S)-3-{[4-(2-{[amino(imino)methyl]amino}ethoxy)-2-hydroxybenzoyl]amino}-2-(pent-4-ynoylamino)propanoic acid]"
8,14.7,"N=C(N)NCCOc1ccc(C(=O)NC[C@H](NC(=O)Cc2ccccc2)C(=O)O)c(O)c1 [Example 199, (2S)-3-{[4-(2-{[amino(imino)methyl]amino}ethoxy)-2-hydroxybenzoyl]amino}-2-[(2-phenylacetyl)amino]propanoic acid]"
9,> 1,"N=C(N)NCCOc1ccc(C(=O)NC[C@H](NC(=O)CCc2ccccc2)C(=O)O)c(O)c1 [Example 200, (2S)-3-{[4-(2-{[amino(imino)methyl]amino}ethoxy)-2-hydroxybenzoyl]amino}-2-[(3-phenylpropanoyl)amino]propanoic acid]"
10,13.2,"N=C(N)NCCOc1ccc(C(=O)NC[C@H](NC(=O)CC2CCCCC2)C(=O)O)c(O)c1 [Example 201, (2S)-3-{[4-(2-{[amino(imino)methyl]amino}ethoxy)-2-hydroxybenzoyl]amino}-2-[(2-cyclohexylacetyl)amino]propanoic acid]"

# The next lines start with the compound.
row,Structure (SMILES),IC50 [µM]
1,COc1ccc(NC(=O)N[C@@H](CNC(=O)c2ccc(OCCNC(=N)N)cc2O)C(=O)O)cc1 [Example 188],12.1
2,"N=C(N)NCCOc1ccc(C(=O)NC[C@H](NC(=O)Nc2ccccc2)C(=O)O)c(O)c1 [Example 189, (2S)-3-{[4-(2-{[amino(imino)methyl]amino}ethoxy)-2-hydroxybenzoyl]amino}-2-[(anilinocarbonyl)amino]propanoic acid]",6.87
3,"N=C(N)NCCOc1ccc(C(=O)NC[C@H](NC(=O)CC23CC4CC(CC(C4)C2)C3)C(=O)O)c(O)c1 [Example 196, (2S)-2-{[2-(1-adamantyl)acetyl]amino}-3-{[4-(2-{[amino(imino)methyl]amino}-ethoxy)-2-hydroxybenzoyl]amino}propanoic acid]",5.71
4,"N=C(N)NCCOc1ccc(C(=O)NC[C@H](NC(=O)C2CCCCC2)C(=O)O)c(O)c1 [Example 198, (2S)-3-{[4-(2-{[amino(imino)methyl]amino}ethoxy)-2-hydroxybenzoyl]amino}-2-[(cyclohexylcarbonyl)amino]propanoic acid]",> 1
5,"N=C(N)NCCOc1ccc(C(=O)NC[C@H](NC(=O)/C=C/c2ccccc2)C(=O)O)c(O)c1 [Example 202, (2S)-3-{[4-(2-{[amino(imino)methyl]amino}ethoxy)-2-hydroxybenzoyl]amino}-2-{[(E)-3-phenylprop-2-enoyl]amino}propanoic acid]",> 1
6,"N=C(N)NCCOc1ccc(C(=O)NC[C@H](NC(=O)c2ccccc2Cl)C(=O)O)c(O)c1 [Example 203, (2S)-3-{[4-(2-{[amino(imino)methyl]amino}ethoxy)-2-hydroxybenzoyl]amino}-2-[(2-chlorobenzoyl)amino]propanoic acid]",14.1
7,"Cc1ccccc1C(=O)N[C@@H](CNC(=O)c1ccc(OCCNC(=N)N)cc1O)C(=O)O [Example 204, (2S)-3-{[4-(2-{[amino(imino)methyl]amino}ethoxy)-2-hydroxybenzoyl]amino}-2-[(2-methylbenzoyl)amino]propanoic acid]",7.48
8,"COc1ccccc1C(=O)N[C@@H](CNC(=O)c1ccc(OCCNC(=N)N)cc1O)C(=O)O [Example 205, (2S)-3-{[4-(2-{[amino(imino)methyl]amino}ethoxy)-2-hydroxybenzoyl]amino}-2-[(2-methoxybenzoyl)amino]propanoic acid]",> 1
9,"N=C(N)NCCOc1ccc(C(=O)NC[C@H](NC(=O)c2ccc(Cl)cc2)C(=O)O)c(O)c1 [Example 206, (2S)-3-{[4-(2-{[amino(imino)methyl]amino}ethoxy)-2-hydroxybenzoyl]amino}-2-[(4-chlorobenzoyl)amino]propanoic acid]",> 1
10,"Cc1ccc(C(=O)N[C@@H](CNC(=O)c2ccc(OCCNC(=N)N)cc2O)C(=O)O)cc1 [Example 207, (2S)-3-{[4-(2-{[amino(imino)methyl]amino}ethoxy)-2-hydroxybenzoyl]amino}-2-[(4-methylbenzoyl)amino]propanoic acid]",> 1
11,"COc1ccc(C(=O)N[C@@H](CNC(=O)c2ccc(OCCNC(=N)N)cc2O)C(=O)O)cc1 [Example 208, (2S)-3-{[4-(2-{[amino(imino)methyl]amino}ethoxy)-2-hydroxybenzoyl]amino-}-2-[(4-methoxybenzoyl)amino]propanoic acid]",> 1
12,"N=C(N)NCCOc1ccc(C(=O)NC[C@H](NC(=O)c2cccnc2)C(=O)O)c(O)c1 [Example 209, (2S)-3-{[4-(2-{[amino(imino)methyl]amino}ethoxy)-2-hydroxybenzoyl]amino}-2-[(pyridin-3-ylcarbonyl)amino]propanoic acid]",> 1
13,"N=C(N)NCCOc1ccc(C(=O)NC[C@H](NC(=O)c2ccncc2)C(=O)O)c(O)c1 [Example 210, (2S)-3-{[4-(2-{[amino(imino)methyl]amino}ethoxy)-2-hydroxybenzoyl]amino}-2-(isonicotinoylamino)propanoic acid]",> 1
14,"Cc1cc(C(=O)N[C@@H](CNC(=O)c2ccc(OCCNC(=N)N)cc2O)C(=O)O)c(C)o1 [Example 211, (2S)-3-{[4-(2-{[amino(imino)methyl]amino}ethoxy)-2-hydroxybenzoyl]amino}-2-[(2,5-dimethyl-3-furoyl)amino]propanoic acid]",> 1
15,"N=C(N)NCCOc1ccc(C(=O)NC[C@H](NC(=O)c2ccccc2Br)C(=O)O)c(O)c1 [Example 212, (2S)-3-{[4-(2-{[amino(imino)methyl]amino}ethoxy)-2-hydroxybenzoyl]amino-}-2-[(2-bromobenzoyl)amino]propanoic acid]",13.1
16,"N=C(N)NCCOc1ccc(C(=O)NC[C@H](NC(=O)c2ccc(Br)cc2)C(=O)O)c(O)c1 [Example 213, (2S)-3-{[4-(2-{[amino(imino)methyl]amino}ethoxy)-2-hydroxybenzoyl]amino}-2-[(4-bromobenzoyl)amino]propanoic acid]",> 1
17,"Cc1cccc(C(=O)N[C@@H](CNC(=O)c2ccc(OCCNC(=N)N)cc2O)C(=O)O)c1C [Example 214, (2S)-3-{[4-(2-{[amino(imino)methyl]amino}ethoxy)-2-hydroxybenzoyl]amino}-2-[(2,3-dimethylbenzoyl)amino]propanoic acid]",2.31
18,"N=C(N)NCCOc1ccc(C(=O)NC[C@H](NC(=O)c2cccc(Cl)c2)C(=O)O)c(O)c1 [Example 215, (2S)-3-{[4-(2-{[amino(imino)methyl]amino}ethoxy)-2-hydroxybenzoyl]amino}-2-[(3-chlorobenzoyl)amino]propanoic acid]",> 1
19,"CC(C)(C)COC(=O)N[C@@H](CNC(=O)c1ccc(OCCNC(=O)NCc2ccccc2)cc1O)C(=O)O [Example 219, (2S)-3-{[4-(2-{[(benzylamino)carbonyl]amino}ethoxy)-2-hydroxy-benzoyl]amino}-2-{[(neopentyloxy)carbonyl]amino}propanoic acid]",1.8
20,"O=C(NCCOc1ccc(C(=O)NC[C@H](NC(=O)OCc2ccccc2)C(=O)O)c(O)c1)NCc1ccccc1 [Example 220, (2S)-3-{[4-(2-{[(benzylamino)carbonyl]amino}ethoxy)-2-hydroxybenzoyl]amino}-2-{[(benzyloxy)carbonyl]amino}propanoic acid]",8.8
21,"COC(=O)N[C@@H](CNC(=O)c1ccc(OCCNC(=O)NCc2ccccc2)cc1O)C(=O)O [Example 221, (2S)-3-{[4-(2-{[(benzylamino)carbonyl]amino}ethoxy)-2-hydroxybenzoyl]amino}-2-[(methoxycarbonyl)amino]propanoic acid]",22.8
22,"CCOC(=O)N[C@@H](CNC(=O)c1ccc(OCCNC(=O)NCc2ccccc2)cc1O)C(=O)O [Example 222, (2S)-3-{[4-(2-{[(benzylamino)carbonyl]amino}ethoxy)-2-hydroxybenzoyl]amino}-2-[(ethoxycarbonyl)amino]propanoic acid]",20.8
23,"CCCOC(=O)N[C@@H](CNC(=O)c1ccc(OCCNC(=O)NCc2ccccc2)cc1O)C(=O)O [Example 223, (2S)-3-{[4-(2-{[(benzylamino)carbonyl]amino}ethoxy)-2-hydroxybenzoyl]amino}-2-[(propoxycarbonyl)amino]propanoic acid]",5.5
24,"CC(C)OC(=O)N[C@@H](CNC(=O)c1ccc(OCCNC(=O)NCc2ccccc2)cc1O)C(=O)O [Example 224, (2S)-3-{[4-(2-{[(benzylamino)carbonyl]amino}ethoxy)-2-hydroxybenzoyl]amino}-2-[(isopropoxycarbonyl)amino]propanoic acid]",4.1
